Laboratory results as given in US20230220047A1, “PEPTIDES FOR TREATMENT OF SEPSIS AND CANCER” (NORWEGIAN UNIVERSITY OF SCIENCE AND TECHNOLOGY (NTNU), priority 2020, published 2023).

Test system: TLR4
Test: ELISA/Bioplex of LPS-mediated cytokine secretion by THP-1 cells
Type: cell-based, human
Details: 15 μM, 30 min pre-treatment, LPS 100 ng/ml 5 h; relative to P7-Pen
Experimental: (A) Results of LDH assay and ELISAs analysing cytokine secretion after 5 h of stimulation with LPS (graphs show mean values for at least 3 biological replicates). […] In the tables average values are presented based on 3-5 biological replicates for each experiment. […]
TNF in supernatants was detected using a human TNF-alpha DuoSet ELISA (DY210) (R&D Systems); CXCL10 using a DuoSet ELISA (DY266) (R&D Systems); IL-1β using a BD OptEiA human IL-1β ELISA SetII (#557953, BD Biosciences): IFNβ using a VeriKine-HS™ Human Interferon-Beta Serum ELISA Kit (#41415) from PBL Assay Science. Some supernatants were also analysed by multiplex cytokine assay (Bio-Plex; Bio-Rad Laboratories Inc.) for IL-1β, IL-6, IL-8, CXCL10/IP-10. Results are presented as mean and SD for biological replicates for a representative donor (primary human macrophages), or at least three independent experiments for the model cell line THP-1. Statistical significance was evaluated in GraphPad Prizm 5.03. Data distribution was assumed to be normal but this was not formally tested. The difference between the two groups was determined by two-tailed t test.

Substance	inhibitory activity towards LPS-induced CXCL10, TNF and IL-1β secretion (ELISA)
ATVYASVTLTGRQIKIWFQNRRMKWKK (P7-A1-Pen) [Peptide P7-A1-Pen]	totally abrogated activity
Ac-ITVYASVTLDGRQIKIWFQNRRMKWKK-NH2 [Peptide P7-D10-Pen]	high levels of activity
Ac-ITVYASVTLGGRQIKIWFQNRRMKWKK-NH2 [Peptide P7-G10-Pen]	high levels of activity
ITLYASVTLTGRQIKIWFQNRRMKWKK (Ac-ITLYASVTLTGRQIKIWFQNRRMKWKK-NH2) [Peptide P7-L3-Pen]	only partially decreased
ITVYASVTLPAGRQIKIWFQNRRMKWKK (P10-A11-Pen) [P10-Ala11-Pen]	totally abrogated
ITVYASVTLPEGRQIKIWFQNRRMKWKK (Ac-ITVYASVTLPEGRQIKIWFQNRRMKWKK-NH2) [Peptide P10-Pen]	totally abrogated
ITVYASVTLTAGRQIKIWFQNRRMKWKK (P11-A11-Pen) [P11-Ala11-Pen]	totally abrogated
ITVYASVTLTEGRQIKIWFQNRRMKWKK (P11-Pen) [Peptide P11-Pen]	totally abrogated
NSITVYASVTLTGRQIKIWFQNRRMKWKK (P3sh2-Pen) [Peptide P3sh2-Pen]	did not cause loss of inhibitory activity
TNSITVYASVTLTGRQIKIWFQNRRMKWKK (P3sh1-Pen) [Peptide P3sh1-Pen]	did not cause loss of inhibitory activity
